Our source for the IC50 values is BindingDB's records for patent US20250127800 (Signet Therapeutics, 2025).

Each structure is given as a SMILES string. pIC50: −log10 of the molar value.

The target in the experiment is Focal adhesion kinase 1 (Homo sapiens, UniProt Q05397). Description: In Vitro Enzymatic Inhibitory Activity Assay.
Chain of Focal adhesion kinase 1 (Q05397 whole entry): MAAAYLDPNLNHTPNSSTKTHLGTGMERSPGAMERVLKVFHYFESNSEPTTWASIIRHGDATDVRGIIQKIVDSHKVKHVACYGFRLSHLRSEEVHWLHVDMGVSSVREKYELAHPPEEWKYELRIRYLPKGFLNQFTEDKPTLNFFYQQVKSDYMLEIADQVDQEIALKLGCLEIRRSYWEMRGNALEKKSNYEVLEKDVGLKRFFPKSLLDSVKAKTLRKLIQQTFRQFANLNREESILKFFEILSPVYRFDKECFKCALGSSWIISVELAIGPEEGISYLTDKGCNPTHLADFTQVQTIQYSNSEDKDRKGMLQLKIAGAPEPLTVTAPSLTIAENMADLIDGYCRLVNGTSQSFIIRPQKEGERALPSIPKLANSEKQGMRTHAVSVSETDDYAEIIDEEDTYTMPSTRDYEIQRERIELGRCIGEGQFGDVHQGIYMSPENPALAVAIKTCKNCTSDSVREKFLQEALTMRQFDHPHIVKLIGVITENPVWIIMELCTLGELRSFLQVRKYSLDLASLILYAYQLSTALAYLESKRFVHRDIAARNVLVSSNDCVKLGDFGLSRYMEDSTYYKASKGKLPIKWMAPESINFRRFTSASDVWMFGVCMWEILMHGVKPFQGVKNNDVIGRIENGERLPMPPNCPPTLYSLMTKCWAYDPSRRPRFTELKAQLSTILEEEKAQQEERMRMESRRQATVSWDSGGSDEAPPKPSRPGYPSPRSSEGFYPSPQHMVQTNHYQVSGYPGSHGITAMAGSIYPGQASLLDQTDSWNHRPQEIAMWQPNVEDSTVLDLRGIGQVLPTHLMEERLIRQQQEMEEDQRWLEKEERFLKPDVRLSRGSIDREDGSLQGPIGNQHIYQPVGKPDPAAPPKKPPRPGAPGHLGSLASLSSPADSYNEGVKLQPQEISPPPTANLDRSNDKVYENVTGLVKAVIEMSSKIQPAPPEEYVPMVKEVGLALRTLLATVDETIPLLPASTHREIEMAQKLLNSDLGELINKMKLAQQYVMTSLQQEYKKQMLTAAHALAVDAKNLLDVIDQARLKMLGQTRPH
Regarding `C=C(C)C(=O)N1CCCC(c2cccc(NCc3ccc(Nc4ncc(C(F)(F)F)c(Nc5ccccc5C(=O)NC)n4)cc3)c2)C1` (stereo unspecified) [US20250127800, Example 24], the pIC50 (in general, the IC50 on a negative log10 scale, so that one unit is a factor of ten) was 8.53.
Then `C=CC(=O)N1CCCC(c2cccc(NCc3ccc(Nc4ncc(Cl)c(Nc5ccccc5C(=O)NC)n4)cc3)c2)C1` (stereo unspecified) [US20250127800, Example 15], with 8.11; and `C=CC(=O)NC1CCC(CNC(=O)c2ccc(Nc3ncc(C(F)(F)F)c(NCc4nccnc4N(C)S(C)(=O)=O)n3)c(OC)c2)CC1` (stereo unspecified) [US20250127800, Example 5], with 9.05.
Consider `C=CC(=O)N1CCCC(c2cccc(NCc3ccc(Nc4ncc(C(F)(F)F)c(Nc5ccccc5C(=O)NC)n4)c(OC)c3)c2)C1` (stereo unspecified) [US20250127800, Example 12], for which the pIC50 was 8.47. This pIC50 lies 0.58 log units lower than the previous one.
Turning to `C=CC(=O)N1CCCC(NC(=O)c2ccc(Nc3ncc(C(F)(F)F)c(NCc4nccnc4N(C)S(C)(=O)=O)n3)c(OC)c2)C1` (stereo unspecified) [US20250127800, Example 3], the negative logarithm of the IC50 (pIC50) was 8.80.
As for `C=CC(=O)N1CCC(NC(=O)c2ccc(Nc3ncc(C(F)(F)F)c(NCc4nccnc4N(C)S(C)(=O)=O)n3)c(OC)c2)C1` (stereo unspecified) [US20250127800, Example 2], the negative-log IC50 (pIC50) was 8.93.
